Data as given in patent publication US11098336B2, “Biosynthesis of bioorthogonal amino acids” (The Regents of the University of California, priority 2017, dated 2021).

Assays:
BesB = biological target: T1, BesB (Streptantibioticus cattleyicolor, UniProt G8XHD7); assay: BesB terminal-alkyne (Pra) formation in vitro; isomerization, D2O exchange and PLP-conjugate trapping; type: biochemical, Streptomyces cattleya; details: for formation of Pra by BesB from substrate: in vitro; for binding to BesB as PLP-conjugate: chemical reduction with imine-reducing reagents
T1 construct: made in house
Protocol: We next turned our attention to formation of the terminal-alkyne. BesB belongs to a family of proteins that utilize pyrodoxyal-5′-phosphate (PLP) as cofactor. Incubating purified BesD, BesC, and BesB in the presence of iron, ascorbate, lysine, and PLP was sufficient to produce Pra in vitro. This order of events is […] to how terminal-alkynes are synthesized chemically, since biosynthesis of Pra involves elimination of an alkyl-halide to a terminal-alkyne. Terminal desaturations have previously only been observed on fatty acids and catalyzed by O2/di-iron dependent fatty acid desaturases. […] From in vitro characterization, we also found it was necessary for the amino acid substrate to be halogenated at the Cγ position.
(§1) While formation of allene-quinonoid can be mechanistically explained, there is no precedence of an enzyme catalyzed allene-alkyne isomerization. One possibility is that BesB forms α-allenyl-glycine enzymatically and isomerization occurs after α-allenyl-glycine is released from PLP. […] Another possibility is BesB produces and releases α-allenyl-glycine, and is subsequently enzymatically isomerized. […] Finally, we explored the possibility of α-allenyl-glycine binding to BesB as a PLP-conjugate by chemically reducing the whole complex with imine-reducing reagents.

BesA = BesA (Streptantibioticus cattleyicolor, UniProt G8XHD8); assay: BesA dipeptide formation in vitro with glutamate and ATP, substrate specificity; type: biochemical, Streptomyces cattleya; details: for activity as BesA substrate (ligation to glutamate): reacted with glutamate, ATP
Source text: We then explored the specifity of BesA by reacting glutamate with norvaline, allylglycine, and the remaining 19 canonical amino acids.
BesA shares homology to carboxylate-amine ligases, which form amides between amines and carboxylates through an ATP-dependent mechanism.

BesD from S. cattleya = BesD from S. cattleya (Streptantibioticus cattleyicolor, UniProt G8XHD5); assay: BesD enzyme-coupled assay that reports on succinate production; type: biochemical, Streptomyces cattleya
Source text: Activity of BesD from S. cattleya on L-lysine was first screened using an enzyme-coupled assay that reports on succinate production.

BesC = biological target: T2, BesC (Streptantibioticus cattleyicolor, UniProt F8JJ25); assay: BesC coupled reaction with BesD, cofactors and lysine; type: biochemical, Streptomyces cattleya; details: cofactors
T2 construct: made in house
Source text: To further characterize BesC, we then tested the ability of BesC to produce 4-Cl-allygllycine in vitro. Addition of Fe(II) to purified apo-enzyme supports the observed reaction, while omission of Fe(II) results in no reaction, supporting the Fe-dependence of the enzyme.

BesE = BesE (Streptantibioticus cattleyicolor, UniProt F8JJ27); assay: BesE hydroxylation in vitro in the presence of ascorbate and α-KG; type: biochemical, Streptomyces cattleya
Source text: Knockout strain of putative amino acid hydroxylase, BesE, was only capable of producing Pra. […] This lead us to believe that there might be an amino acid carrier that serves as the true substrate for BesE. Through comparative metabolomics, we were able to identify a metabolite enriched in S. cattleya ΔbesE over wildtype. This compound was also present, but at low concentration, in S. cattleya ΔbesA. We identified this compound as having mass consistent with a Pra-Glu dipeptide. When this compound was fragmented we were able to detect characteristic fragments consistent with an amide bond cleavage, supporting evidence that this compound is a Pra-Glu dipeptide.
The last dedicated enzyme involved in the biosynthesis of βes is BesE. Once we had identified Pra-Glu as the product of BesA, it became apparent that the true substrate of BesE is a Pra-Glu dipeptide. S. cattleya ΔbesB, ΔbesC, ΔbesD, and ΔbesE were unable to produce measurable amounts of the dipeptides in vivo. In comparison, ΔbesA was still able to produce βes-Glu but at lower titers when compared to S. cattleya wildtype.

cystathionine-γ-lyase = details: previously identified; cited from earlier work
[1] = spontaneous isomerization of free α-allenyl-glycine in buffered solution / D2O; type: physicochemical
Source text: as §1

Sequence of BesA (G8XHD8 whole entry): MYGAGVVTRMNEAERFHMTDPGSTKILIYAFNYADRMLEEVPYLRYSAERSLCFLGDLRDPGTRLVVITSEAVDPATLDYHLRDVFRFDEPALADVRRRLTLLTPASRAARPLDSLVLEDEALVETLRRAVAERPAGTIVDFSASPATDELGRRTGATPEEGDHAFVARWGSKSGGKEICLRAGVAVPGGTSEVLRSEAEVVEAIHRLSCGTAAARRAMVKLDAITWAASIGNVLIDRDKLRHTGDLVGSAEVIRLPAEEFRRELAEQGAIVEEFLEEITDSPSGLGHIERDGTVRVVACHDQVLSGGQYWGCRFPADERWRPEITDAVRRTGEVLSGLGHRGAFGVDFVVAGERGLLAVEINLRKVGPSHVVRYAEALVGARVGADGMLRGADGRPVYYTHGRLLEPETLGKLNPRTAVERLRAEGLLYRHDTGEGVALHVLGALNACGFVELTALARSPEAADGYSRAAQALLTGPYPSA
Sequence of BesD from S. cattleya (G8XHD5 whole entry): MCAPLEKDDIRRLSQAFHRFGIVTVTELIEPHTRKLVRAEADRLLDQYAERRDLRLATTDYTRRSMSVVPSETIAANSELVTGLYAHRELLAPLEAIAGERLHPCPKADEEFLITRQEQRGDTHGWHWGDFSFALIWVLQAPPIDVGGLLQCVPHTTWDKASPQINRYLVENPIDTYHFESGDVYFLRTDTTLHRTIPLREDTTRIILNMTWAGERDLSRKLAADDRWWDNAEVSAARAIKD
T1 sequence (G8XHD7 whole entry): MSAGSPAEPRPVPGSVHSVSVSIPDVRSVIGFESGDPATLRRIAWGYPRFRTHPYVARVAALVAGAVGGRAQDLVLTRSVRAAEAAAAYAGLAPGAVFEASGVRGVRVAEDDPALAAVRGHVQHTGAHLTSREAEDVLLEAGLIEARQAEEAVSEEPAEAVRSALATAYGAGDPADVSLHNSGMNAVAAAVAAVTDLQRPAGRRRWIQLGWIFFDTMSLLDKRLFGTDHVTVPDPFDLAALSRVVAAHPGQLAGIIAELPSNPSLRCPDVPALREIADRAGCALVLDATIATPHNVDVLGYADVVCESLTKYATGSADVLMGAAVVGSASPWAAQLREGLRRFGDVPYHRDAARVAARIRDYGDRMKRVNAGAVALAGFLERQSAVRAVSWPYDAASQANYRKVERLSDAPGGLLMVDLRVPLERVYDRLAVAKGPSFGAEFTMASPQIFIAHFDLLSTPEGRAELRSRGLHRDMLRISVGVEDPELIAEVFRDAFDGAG
Sequence of BesE (F8JJ27 whole entry, the tested form may be a part): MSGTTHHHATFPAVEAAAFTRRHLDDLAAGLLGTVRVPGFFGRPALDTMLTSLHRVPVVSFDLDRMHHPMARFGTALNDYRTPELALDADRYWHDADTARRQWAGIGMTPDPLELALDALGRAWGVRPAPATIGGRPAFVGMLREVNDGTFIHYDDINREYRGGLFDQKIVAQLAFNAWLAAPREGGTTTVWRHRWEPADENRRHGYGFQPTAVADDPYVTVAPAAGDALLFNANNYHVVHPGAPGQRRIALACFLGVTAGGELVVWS
T2 sequence (F8JJ25 whole entry): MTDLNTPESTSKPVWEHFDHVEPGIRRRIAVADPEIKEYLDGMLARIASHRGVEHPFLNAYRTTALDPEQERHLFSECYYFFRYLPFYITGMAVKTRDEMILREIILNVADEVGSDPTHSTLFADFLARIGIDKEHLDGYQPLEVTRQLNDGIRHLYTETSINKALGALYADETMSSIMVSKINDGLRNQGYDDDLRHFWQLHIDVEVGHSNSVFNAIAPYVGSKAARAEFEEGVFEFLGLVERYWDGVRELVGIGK

## C=C(Br)CC(N)C(=O)O (stereo not shown) [4-Br-allylglycine]
BesB
  formation of Pra by BesB from substrate: able to form Pra

## C=CCC(N)C(=O)O (stereo not shown) [allylglycine]
BesA
  activity as BesA substrate (ligation to glutamate): Pra and Cys were the only two amino acids to show any measurable activity
BesB
  formation of Pra by BesB from substrate: not when allylglycine is a substrate

## NCCCC[C@H](N)C(=O)O [L-lysine]
BesD from S. cattleya
  BesD activity with substrate (rate of NADH production): greatest
BesC
  accepted as BesC substrate: accepts lysine as a substrate directly to form allylglycine

## C#CCC(N)C(=O)O (stereo not shown) [Pra, propargylglycine]
BesA; BesA substrate
  Km for Pra relative to Km for Cys: 10 fold lower
  kcat, Pra compared with Cys: comparable
BesA
  activity as BesA substrate (ligation to glutamate): measurable activity
BesB
  binding to BesB as PLP-conjugate: able to observe Pra as a PLP bound species
BesE
  reaction with BesE (hydroxylation): no reaction was observed
cystathionine-γ-lyase
  inhibition of PLP proteins including cystathionine-γ-lyase: mechanistic, suicide inhibitor

## C=C=CC(N)C(=O)O (stereo not drawn) [α-allenyl-glycine, reference compound]
BesB
  binding to BesB as PLP-conjugate: unable to bind BesB
BesB; incubated with BesB in D2O
  D2O exchange in the presence of BesB: neglible D2O exchange
  isomerization by BesB: no isomerization
[1]; buffered solution, 24 h, room temperature
  spontaneous formation of Pra: did not produce detectable amounts of Pra
[1]; incubated in D2O, no enzyme
  exchange with solvent: negligible exchange

## N=C(N)NCCC[C@H](N)C(=O)O [arginine]
BesD from S. cattleya
  BesD activity with substrate (rate of NADH production): no activity

## C=C(Cl)CC(N)C(=O)O (stereo not shown) [4-Cl-allylglycine]
BesB
  formation of Pra by BesB from substrate: able to form Pra

## CCC[C@H](N)C(=O)O [norvaline]
BesA
  activity as BesA substrate (ligation to glutamate): Pra and Cys were the only two amino acids to show any measurable activity
BesD from S. cattleya
  BesD activity with substrate (rate of NADH production): no activity

## C#CC[C@H](NC(=O)CC[C@H](N)C(=O)O)C(=O)O [Glu-Pra dipeptide, γ-Glu-α-Pra]
BesE
  reaction with BesE (hydroxylation): able to hydroxylate

## N[C@@H](CS)C(=O)O [Cys, cysteine]
BesA
  activity as BesA substrate (ligation to glutamate): measurable activity
